Series [1] deals with pentagastrin-stimulated acid secretion of the perfused rat stomach. The series is described as follows: Secretion-inhibiting action on the perfused rat stomach (pentagastrin-stimulated acid secretion). It is filed as in vivo. The conditions noted are these: anesthetized CD rat, dose 3.0 μmol/kg i.d. (intraduodenal). From the text:
Testing of the Secretion-Inhibiting Action on the Perfused Rat Stomach
In Table A which follows, the influence of the compounds of the formula 1 according to the invention on the pentagastrin-stimulated acid secretion of the perfused rat stomach after intraduodenal administration in vivo is shown.
The abdomen of anesthetized rats (CD rat, female, 200-250 g; 1.5 g/kg i.m. urethane) was opened after tracheotomy by a median upper abdominal incision and a PVC catheter was fixed transorally in the esophagus and another via the pylorus such that the ends of the tubes just projected into the gastric lumen. The catheter leading from the pylorus led outward into the right abdominal wall through a side opening.
After thorough rinsing (about 50-100 ml), warm (37° C.) physiological NaCl solution was continuously passed through the stomach (0.5 ml/min, pH 6.8-6.9; Braun-Unita I). The pH (pH meter 632, glass electrode EA 147; φ=5 mm, Metrohm) and, by titration with a freshly prepared 0.01N NaOH solution to pH 7 (Dosimat 665 Metrohm), the secreted HCl were determined in the effluent in each case collected at an interval of 15 minutes.
The gastric secretion was stimulated by continuous infusion of […] (=1.65 ml/h) of i.v. pentagastrin (left femoral vein) about 30 min after the end of the operation (i.e. after determination of 2 preliminary fractions). […]

Here are results for three molecules from patent US20080113962A1, “Condensed Tricyclic Benzimidazoles For the Treatment of Gastrointestinal Disorders” (Aitana Pharma AG, priority 2004, published 2008).

The structures appear in SMILES notation.

What is called melting point is the temperature of the solid-liquid transition.

Regarding `Cc1nc2c3c(ccc2n1C)[C@H](O)C[C@H](c1ccccc1)O3` (relative stereo) [Example 1, cis-2,3-Dimethyl-8-phenyl-3,6,7,8-tetrahydro-chromeno[7,8-d]imidazol-6-ol], the melting point lay within 228 to 229 °C. In turn, `COCCOC1CC(c2ccccc2)Oc2c1ccc1c2nc(C)n1C` (stereo not shown) [Example 2, 6-(2-Methoxy-ethoxy)-2,3-dimethyl-8-phenyl-3,6,7,8-tetrahydro-chromeno[7,8-d]imidazole] showed a melting point of 148 to 149 °C. Also, the “Inhibition of acid secretion” value in series [1] is above 50%. Molecule `CCOC1CC(c2ccccc2)Oc2c1ccc1c2nc(C)n1C` (stereo not shown) [Example 3, 6-(2-Ethoxy)-2,3-dimethyl-8-phenyl-3,6,7,8-tetrahydro-chromeno[7,8-d]imidazole] showed a melting point of 177 to 178 °C.
